Like-named read-outs stand apart in the source and are kept apart here.
Legend:
Assay in all cases: biochemical
Set-up in all cases: Eurofins DiscoverX kinase panel, competitive binding assay at 1 uM, percent of DMSO control
Details in all cases: competitive binding, percent of DMSO control
CAMK4 = molecular target: T1, CAMK4 (Homo sapiens, UniProt Q16566)
T1 sequence (Q16566 1-473): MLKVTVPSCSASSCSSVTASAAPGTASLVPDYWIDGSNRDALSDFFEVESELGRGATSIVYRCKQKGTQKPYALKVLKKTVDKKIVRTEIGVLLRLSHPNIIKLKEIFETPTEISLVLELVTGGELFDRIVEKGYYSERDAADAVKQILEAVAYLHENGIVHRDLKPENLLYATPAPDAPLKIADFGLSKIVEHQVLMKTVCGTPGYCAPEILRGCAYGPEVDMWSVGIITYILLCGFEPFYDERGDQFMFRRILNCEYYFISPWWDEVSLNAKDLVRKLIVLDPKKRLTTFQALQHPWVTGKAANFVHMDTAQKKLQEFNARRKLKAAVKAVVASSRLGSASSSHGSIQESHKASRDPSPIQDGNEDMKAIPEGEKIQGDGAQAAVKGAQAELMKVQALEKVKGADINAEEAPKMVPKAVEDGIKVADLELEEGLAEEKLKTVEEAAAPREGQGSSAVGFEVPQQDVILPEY
Summary of the method: (§1)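 Single-point profiling at 1 µM compound in a competition-binding format against 96 kinases, read out as POC relative to control; n = 1.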

DAPK1 = DAPK1 (Homo sapiens, UniProt P53355)
Summary of the method: as §1

DMPK = molecular target: T2, DMPK (Homo sapiens, UniProt Q09013)
T2 sequence (Q09013 1-629): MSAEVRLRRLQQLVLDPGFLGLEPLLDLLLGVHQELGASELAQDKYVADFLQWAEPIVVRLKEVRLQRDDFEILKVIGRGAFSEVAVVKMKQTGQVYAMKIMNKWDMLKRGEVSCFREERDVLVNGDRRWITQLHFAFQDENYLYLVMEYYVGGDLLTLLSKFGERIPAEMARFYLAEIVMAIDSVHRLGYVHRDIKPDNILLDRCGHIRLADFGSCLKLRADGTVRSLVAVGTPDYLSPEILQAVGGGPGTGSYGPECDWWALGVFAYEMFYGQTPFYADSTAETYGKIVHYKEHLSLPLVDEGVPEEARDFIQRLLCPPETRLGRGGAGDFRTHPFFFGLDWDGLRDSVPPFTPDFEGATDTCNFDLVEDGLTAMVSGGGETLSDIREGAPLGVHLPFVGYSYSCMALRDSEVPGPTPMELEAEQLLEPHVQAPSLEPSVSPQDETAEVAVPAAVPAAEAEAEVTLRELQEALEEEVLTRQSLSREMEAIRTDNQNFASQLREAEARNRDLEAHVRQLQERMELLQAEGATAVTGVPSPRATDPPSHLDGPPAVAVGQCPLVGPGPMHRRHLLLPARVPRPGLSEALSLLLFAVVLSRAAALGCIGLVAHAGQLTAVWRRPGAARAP
Summary of the method: as §1

MARK1 = MARK1 (Homo sapiens, UniProt Q9P0L2)
Summary of the method: as §1

Trk-A = molecular target: T3, Trk-A (Homo sapiens, UniProt P04629)
T3 construct: gene NTRK1
Summary of the method: as §1

p38 α = molecular target: T4, p38 α (Homo sapiens, UniProt Q16539)
T4 construct: gene MAPK14
Summary of the method: as §1

[1] = read-out: Kinome Profiling performed by Eurofins DiscoverX / AM-1882, 1.0 µM / POC
[2] = read-out: Kinome Profiling performed by Eurofins DiscoverX / AM-0277, 1.0 µM / POC
[3] = read-out: Kinome Profiling performed by Eurofins DiscoverX / AM-5308, 1.0 µM / POC

Chain of DAPK1 (P53355 whole entry): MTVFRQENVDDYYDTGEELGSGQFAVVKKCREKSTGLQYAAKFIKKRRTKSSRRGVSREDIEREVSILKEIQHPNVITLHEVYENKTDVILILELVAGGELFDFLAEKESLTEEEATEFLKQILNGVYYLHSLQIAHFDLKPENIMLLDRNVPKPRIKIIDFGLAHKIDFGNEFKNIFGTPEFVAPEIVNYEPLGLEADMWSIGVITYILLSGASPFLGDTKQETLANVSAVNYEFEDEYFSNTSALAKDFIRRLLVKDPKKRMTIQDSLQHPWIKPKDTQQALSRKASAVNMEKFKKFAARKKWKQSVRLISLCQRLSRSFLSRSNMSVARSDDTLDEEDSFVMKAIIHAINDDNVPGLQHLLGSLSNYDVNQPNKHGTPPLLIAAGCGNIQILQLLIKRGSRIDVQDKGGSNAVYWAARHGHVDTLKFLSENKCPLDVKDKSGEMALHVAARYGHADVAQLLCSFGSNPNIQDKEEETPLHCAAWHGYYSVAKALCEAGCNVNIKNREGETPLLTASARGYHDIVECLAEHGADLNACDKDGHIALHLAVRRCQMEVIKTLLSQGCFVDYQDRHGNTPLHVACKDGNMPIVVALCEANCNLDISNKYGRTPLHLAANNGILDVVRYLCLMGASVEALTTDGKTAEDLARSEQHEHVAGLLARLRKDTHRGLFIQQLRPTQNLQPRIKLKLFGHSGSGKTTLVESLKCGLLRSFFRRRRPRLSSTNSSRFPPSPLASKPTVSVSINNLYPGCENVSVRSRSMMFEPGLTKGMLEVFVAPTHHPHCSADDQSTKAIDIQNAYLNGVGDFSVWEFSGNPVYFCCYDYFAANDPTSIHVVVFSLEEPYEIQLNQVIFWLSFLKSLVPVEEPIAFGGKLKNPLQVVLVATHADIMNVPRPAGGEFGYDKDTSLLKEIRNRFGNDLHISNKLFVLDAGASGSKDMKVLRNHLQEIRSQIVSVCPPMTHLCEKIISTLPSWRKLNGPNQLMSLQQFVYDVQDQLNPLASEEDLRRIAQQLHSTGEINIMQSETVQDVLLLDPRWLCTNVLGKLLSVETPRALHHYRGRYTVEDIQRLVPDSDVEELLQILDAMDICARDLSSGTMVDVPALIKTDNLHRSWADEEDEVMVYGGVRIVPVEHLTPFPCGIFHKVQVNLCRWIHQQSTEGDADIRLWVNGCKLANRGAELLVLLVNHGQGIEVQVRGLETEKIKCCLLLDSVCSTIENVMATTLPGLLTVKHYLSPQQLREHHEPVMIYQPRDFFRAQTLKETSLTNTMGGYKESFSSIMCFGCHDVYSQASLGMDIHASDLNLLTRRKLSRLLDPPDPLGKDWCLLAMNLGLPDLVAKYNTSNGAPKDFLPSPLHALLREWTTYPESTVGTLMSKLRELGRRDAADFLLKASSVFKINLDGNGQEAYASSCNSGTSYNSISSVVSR
Chain of MARK1 (Q9P0L2 whole entry): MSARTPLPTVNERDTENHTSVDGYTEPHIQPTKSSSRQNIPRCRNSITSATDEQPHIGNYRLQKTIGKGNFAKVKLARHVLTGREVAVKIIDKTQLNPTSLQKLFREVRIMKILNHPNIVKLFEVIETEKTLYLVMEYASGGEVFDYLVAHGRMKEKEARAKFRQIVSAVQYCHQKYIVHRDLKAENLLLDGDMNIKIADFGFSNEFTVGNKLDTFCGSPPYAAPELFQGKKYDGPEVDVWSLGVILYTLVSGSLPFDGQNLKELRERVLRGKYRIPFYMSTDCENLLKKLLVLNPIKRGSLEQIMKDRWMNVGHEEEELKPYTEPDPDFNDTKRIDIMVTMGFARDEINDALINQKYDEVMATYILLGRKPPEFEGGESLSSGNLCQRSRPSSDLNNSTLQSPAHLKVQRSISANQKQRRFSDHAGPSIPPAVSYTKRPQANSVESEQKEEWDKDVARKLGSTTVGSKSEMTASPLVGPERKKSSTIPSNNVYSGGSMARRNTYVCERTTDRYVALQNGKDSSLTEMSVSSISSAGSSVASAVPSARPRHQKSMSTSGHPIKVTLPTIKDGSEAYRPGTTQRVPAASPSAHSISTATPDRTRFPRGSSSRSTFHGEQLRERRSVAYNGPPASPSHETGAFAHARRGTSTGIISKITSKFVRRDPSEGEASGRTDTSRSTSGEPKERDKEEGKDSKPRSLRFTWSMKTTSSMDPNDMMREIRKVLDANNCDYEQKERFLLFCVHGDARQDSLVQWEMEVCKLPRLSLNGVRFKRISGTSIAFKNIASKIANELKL
T3 sequence (P04629 whole entry): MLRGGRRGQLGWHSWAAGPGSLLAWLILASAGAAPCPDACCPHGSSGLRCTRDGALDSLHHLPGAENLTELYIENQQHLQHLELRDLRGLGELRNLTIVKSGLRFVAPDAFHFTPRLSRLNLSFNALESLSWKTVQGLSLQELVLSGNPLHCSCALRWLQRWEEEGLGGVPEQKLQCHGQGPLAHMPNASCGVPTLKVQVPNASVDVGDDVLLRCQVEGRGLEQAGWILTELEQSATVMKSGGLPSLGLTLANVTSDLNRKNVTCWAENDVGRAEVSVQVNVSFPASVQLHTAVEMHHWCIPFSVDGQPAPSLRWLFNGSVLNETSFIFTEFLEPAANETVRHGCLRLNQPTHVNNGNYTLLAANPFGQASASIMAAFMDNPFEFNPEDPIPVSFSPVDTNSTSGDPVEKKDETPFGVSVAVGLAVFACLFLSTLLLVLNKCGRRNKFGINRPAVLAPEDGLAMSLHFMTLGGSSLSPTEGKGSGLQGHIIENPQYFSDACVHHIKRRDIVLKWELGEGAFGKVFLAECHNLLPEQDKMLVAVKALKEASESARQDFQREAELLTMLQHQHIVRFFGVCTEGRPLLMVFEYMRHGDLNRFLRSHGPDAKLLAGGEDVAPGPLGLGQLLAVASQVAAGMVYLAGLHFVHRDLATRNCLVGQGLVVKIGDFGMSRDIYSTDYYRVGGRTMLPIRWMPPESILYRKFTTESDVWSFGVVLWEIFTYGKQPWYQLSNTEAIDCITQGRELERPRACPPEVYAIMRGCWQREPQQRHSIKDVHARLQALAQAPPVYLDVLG
T4 sequence (Q16539 whole entry): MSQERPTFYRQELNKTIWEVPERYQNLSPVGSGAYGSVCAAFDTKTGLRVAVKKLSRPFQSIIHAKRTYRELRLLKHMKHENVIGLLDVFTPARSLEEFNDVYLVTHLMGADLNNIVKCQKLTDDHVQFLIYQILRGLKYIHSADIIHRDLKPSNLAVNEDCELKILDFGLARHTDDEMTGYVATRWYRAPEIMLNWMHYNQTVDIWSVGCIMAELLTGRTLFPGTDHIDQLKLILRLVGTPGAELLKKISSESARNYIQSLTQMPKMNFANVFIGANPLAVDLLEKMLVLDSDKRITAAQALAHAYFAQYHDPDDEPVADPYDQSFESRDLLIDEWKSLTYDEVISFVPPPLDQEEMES

CC(C)(C)NS(=O)(=O)c1cccc(NC(=O)c2ccc(S(=O)(=O)NC(C)(C)C)cc2N2CCC3(CC2)CC3)c1 [AM-1882]
remaining activity at 1 µM (CAMK4; [1]): 99%
remaining activity at 1 µM (DAPK1; [1]): 87%
remaining activity at 1 µM (DMPK; [1]): 99.5%
remaining activity at 1 µM (MARK1; [1]): 100%
remaining activity at 1 µM (Trk-A; [1]): 54.5%
remaining activity at 1 µM (p38 α; [1]): 100%

CC(C)(CO)Nc1ccc(C(=O)Nc2cccc(S(=O)(=O)C3CCCC3)c2)c(N2CCC3(CC2)CC3)n1 [AM-0277]
remaining activity at 1 µM (CAMK4; [2]): 81%
remaining activity at 1 µM (DAPK1; [2]): 100%
remaining activity at 1 µM (DMPK; [2]): 100%
remaining activity at 1 µM (MARK1; [2]): 96%
remaining activity at 1 µM (Trk-A; [2]): 40%
remaining activity at 1 µM (p38 α; [2]): 100%

C[C@@H]1CN(c2cccc(NC(=O)c3ccc(NS(=O)(=O)CCO)cc3N3CCC4(CC3)CC4)n2)CCO1 [AM-5308]
remaining activity at 1 µM (CAMK4; [3]): 100%
remaining activity at 1 µM (DAPK1; [3]): 89.5%
remaining activity at 1 µM (DMPK; [3]): 92%
remaining activity at 1 µM (MARK1; [3]): 98.5%
remaining activity at 1 µM (Trk-A; [3]): 17.5%
remaining activity at 1 µM (p38 α; [3]): 89.5%

Reference: PMC10824666 (Nature Cancer, 2023)
